From patent publication US9005575B2, “Arg-Gly-Asp-conjugated alpha-melanocyte stimulating hormone hybrid peptide for use in diagnosing and treating melanoma, including metastatic melanoma and methods related to same” (STC.UNM, priority 2009, dated 2015)
Read-outs that look alike come from different tables or passages of the source. Positions of bridges follow the written chain, without caps; N, C: chain ends. Non-standard residues stand in square brackets, D forms with d. Residues, ends and D or L forms follow the SMILES beside them.

Assay: Biodistribution in B16/F1 melanoma-bearing C57 mice
Format: in vivo
Settings: female, C57, mouse, iv, total radioactivity
Description: All the animal studies were conducted in compliance with Institutional Animal Care and Use Committee approval. The pharmacokinetics of ^99mTc-RGD-Lys-(Arg^11)CCMSH was determined in B16/F1 melanoma-bearing C57 female mice (Harlan, Indianapolis, Ind.). C57 mice were subcutaneously inoculated on the right flank with 1×10^6 B16/F1 cells. The weight of tumors reached approximately 0.2 g 10 days post cell inoculation. Each melanoma-bearing mouse was injected with 0.037 MBq of ^99mTc-RGD-Lys-(Arg^11)CCMSH via the tail vein. Groups of 5 mice were sacrificed at 0.5, 2, 4 and 24 h post-injection, and tumors and organs of interest were harvested, weighed and counted. Blood values were taken as 6.5% of the whole-body weight. The MC1 receptor specificity of the tumor uptake was determined at 2 h post-injection by co-injecting ^99mTc-RGD-Lys-(Arg^11)CCMSH with 10 μg (6.1 nmol) of unlabeled NDP-MSH, a linear α-MSH peptide analogue with picomolar affinity for the MC1 receptors present on murine melanoma cells. The co-injection of 3.5 μg (6.1 nmol) of RGD peptide was performed to determine the αvβ3 integrin specificity of the tumor uptake 2 h post-injection. Statistical analysis was performed using the Student's t-test for unpaired data.
All the animal studies were conducted in compliance with Institutional Animal Care and Use Committee approval. The pharmacokinetics of ^99mTc-RGD-Arg-(Arg^11)CCMSH was determined in B16/F1 melanoma-bearing C57 female mice (Harlan, Indianapolis, Ind.). C57 mice were subcutaneously inoculated on the right flank with 1×10^6 B16/F1 cells. The weight of tumors reached approximately 0.2 g 10 days post cell inoculation. Each melanoma-bearing mouse was injected with 0.037 MBq of ^99mTc-RGD-Arg-(Arg^11)CCMSH via the tail vein. Groups of 5 mice were sacrificed at 0.5, 2, 4 and 24 h post-injection, and tumors and organs of interest were harvested, weighed and counted. Blood values were taken as 6.5% of the whole-body weight. The MC1 receptor specificity of the tumor uptake was determined at 2 h post-injection by co-injecting ^99mTc-RGD-Arg-(Arg^11)CCMSH with 10 μg (6.1 nmol) of unlabeled NDP-MSH. The co-injection of 3.5 μg (6.1 nmol) of RGD peptide was performed to determine the αvβ3 integrin specificity of the tumor uptake at 2 h post-injection.

tissue uptake at 2 h (skin, 0.037 MBq, 2 h post-injection, read-out: Skin, Percentage Injected Dose/gram): 1.29 ± 0.32 %ID/g | tissue uptake at 4 h (skin, 0.037 MBq, 4 h post-injection, read-out: Skin, Percentage Injected Dose/gram): 0.82 ± 0.22 %ID/g | tissue uptake at 24 h (skin, 0.037 MBq, 24 h post-injection, read-out: Skin, Percentage Injected Dose/gram): 0.75 ± 0.13 %ID/g | tissue uptake at 2 h (skin, 2 h post-injection, NDP blockade (10 μg NDP-MSH co-injected), read-out: Skin, Percentage Injected Dose/gram): 1.26 ± 0.14 %ID/g | tissue uptake at 2 h (skin, 2 h post-injection, RGD blockade (3.5 μg RGD co-injected), read-out: Skin, Percentage Injected Dose/gram): 0.95 ± 0.38 %ID/g | tissue uptake at 0.5 h (spleen, 0.037 MBq, 0.5 h post-injection, read-out: Spleen, Percentage Injected Dose/gram): 2.73 ± 0.8 %ID/g | tissue uptake at 2 h (spleen, 0.037 MBq, 2 h post-injection, read-out: Spleen, Percentage Injected Dose/gram): 1.17 ± 0.57 %ID/g | tissue uptake at 4 h (spleen, 0.037 MBq, 4 h post-injection, read-out: Spleen, Percentage Injected Dose/gram): 1.75 ± 0.55 %ID/g | tissue uptake at 24 h (spleen, 0.037 MBq, 24 h post-injection, read-out: Spleen, Percentage Injected Dose/gram): 1.45 ± 0.37 %ID/g | tissue uptake at 2 h (spleen, 2 h post-injection, NDP blockade (10 μg NDP-MSH co-injected), read-out: Spleen, Percentage Injected Dose/gram): 1.53 ± 0.12 %ID/g | tissue uptake at 2 h (spleen, 2 h post-injection, RGD blockade (3.5 μg RGD co-injected), read-out: Spleen, Percentage Injected Dose/gram): 0.67 ± 0.38 %ID/g | tissue uptake at 0.5 h (stomach, 0.037 MBq, 0.5 h post-injection, read-out: Stomach, Percentage Injected Dose/gram): 4.3 ± 1.78 %ID/g | tissue uptake at 2 h (stomach, 0.037 MBq, 2 h post-injection, read-out: Stomach, Percentage Injected Dose/gram): 2.75 ± 1.71 %ID/g | tissue uptake at 4 h (stomach, 0.037 MBq, 4 h post-injection, read-out: Stomach, Percentage Injected Dose/gram): 3.44 ± 0.83 %ID/g | tissue uptake at 24 h (stomach, 0.037 MBq, 24 h post-injection, read-out: Stomach, Percentage Injected Dose/gram): 0.47 ± 0.17 %ID/g | tissue uptake at 2 h (stomach, 2 h post-injection, NDP blockade (10 μg NDP-MSH co-injected), read-out: Stomach, Percentage Injected Dose/gram): 2.4 ± 0.49 %ID/g | tissue uptake at 2 h (stomach, 2 h post-injection, RGD blockade (3.5 μg RGD co-injected), read-out: Stomach, Percentage Injected Dose/gram): 2.03 ± 1.39 %ID/g | Fold change in tumor/kidney uptake ratio versus ^99mTc-RGD-Lys-(Arg^11)CCMSH at 0.5 h (tumor and kidneys, 0.037 MBq, 0.5 h post-injection, read-out: Tumor/kidney uptake ratio, times that of ^99mTc-RGD-Lys-(Arg^11)CCMSH): 2.38 | Fold change in tumor/kidney uptake ratio versus ^99mTc-RGD-Lys-(Arg^11)CCMSH at 2 h (tumor and kidneys, 0.037 MBq, 2 h post-injection, read-out: Tumor/kidney uptake ratio, times that of ^99mTc-RGD-Lys-(Arg^11)CCMSH): 2.27 | Fold change in tumor/kidney uptake ratio versus ^99mTc-RGD-Lys-(Arg^11)CCMSH at 4 h (tumor and kidneys, 0.037 MBq, 4 h post-injection, read-out: Tumor/kidney uptake ratio, times that of ^99mTc-RGD-Lys-(Arg^11)CCMSH): 2.44 | tissue uptake at 0.5 h (tumor, 0.037 MBq, 0.5 h post-injection, read-out: Tumor, Percentage Injected Dose/gram): 14.1 ± 2.42 %ID/g | tissue uptake at 2 h (tumor, 0.037 MBq, 2 h post-injection, read-out: Tumor, Percentage Injected Dose/gram): 21.4 ± 3.74 %ID/g | tissue uptake at 4 h (tumor, 0.037 MBq, 4 h post-injection, read-out: Tumor, Percentage Injected Dose/gram): 16.1 ± 2 %ID/g | tissue uptake at 24 h (tumor, 0.037 MBq, 24 h post-injection, read-out: Tumor, Percentage Injected Dose/gram): 6.81 ± 3.71 %ID/g | tissue uptake at 2 h (tumor, 2 h post-injection, NDP blockade (10 μg NDP-MSH co-injected), read-out: Tumor, Percentage Injected Dose/gram): 1.96 ± 0.71 %ID/g | tissue uptake at 2 h (tumor, 2 h post-injection, RGD blockade (3.5 μg RGD co-injected), read-out: Tumor, Percentage Injected Dose/gram): 16.9 ± 2.69 %ID/g | tissue to tissue ratio at 0.5 h (tumor/blood, 0.037 MBq, 0.5 h post-injection, read-out: Uptake Ratio Tumor/Blood): 3.87 | tissue to tissue ratio at 2 h (tumor/blood, 0.037 MBq, 2 h post-injection, read-out: Uptake Ratio Tumor/Blood): 38.9 | tissue to tissue ratio at 4 h (tumor/blood, 0.037 MBq, 4 h post-injection, read-out: Uptake Ratio Tumor/Blood): 22.6 | tissue to tissue ratio at 24 h (tumor/blood, 0.037 MBq, 24 h post-injection, read-out: Uptake Ratio Tumor/Blood): 28.4 | tissue to tissue ratio at 2 h (tumor/blood, 2 h post-injection, NDP blockade (10 μg NDP-MSH co-injected), read-out: Uptake Ratio Tumor/Blood): 4.17 | tissue to tissue ratio at 2 h (tumor/blood, 2 h post-injection, RGD blockade (3.5 μg RGD co-injected), read-out: Uptake Ratio Tumor/Blood): 422 | tissue to tissue ratio at 0.5 h (tumor/kidneys, 0.037 MBq, 0.5 h post-injection, read-out: Uptake Ratio Tumor/Kidneys): 0.38 | tissue to tissue ratio at 2 h (tumor/kidneys, 0.037 MBq, 2 h post-injection, read-out: Uptake Ratio Tumor/Kidneys): 0.5 | tissue to tissue ratio at 4 h (tumor/kidneys, 0.037 MBq, 4 h post-injection, read-out: Uptake Ratio Tumor/Kidneys): 0.44 | tissue to tissue ratio at 24 h (tumor/kidneys, 0.037 MBq, 24 h post-injection, read-out: Uptake Ratio Tumor/Kidneys): 0.42 | tissue to tissue ratio at 2 h (tumor/kidneys, 2 h post-injection, NDP blockade (10 μg NDP-MSH co-injected), read-out: Uptake Ratio Tumor/Kidneys): 0.06 | tissue to tissue ratio at 2 h (tumor/kidneys, 2 h post-injection, RGD blockade (3.5 μg RGD co-injected), read-out: Uptake Ratio Tumor/Kidneys): 0.44 | tissue to tissue ratio at 0.5 h (tumor/liver, 0.037 MBq, 0.5 h post-injection, read-out: Uptake Ratio Tumor/Liver): 3.35 | tissue to tissue ratio at 2 h (tumor/liver, 0.037 MBq, 2 h post-injection, read-out: Uptake Ratio Tumor/Liver): 5.98 | tissue to tissue ratio at 4 h (tumor/liver, 0.037 MBq, 4 h post-injection, read-out: Uptake Ratio Tumor/Liver): 3.26 | tissue to tissue ratio at 24 h (tumor/liver, 0.037 MBq, 24 h post-injection, read-out: Uptake Ratio Tumor/Liver): 3.6 | tissue to tissue ratio at 2 h (tumor/liver, 2 h post-injection, NDP blockade (10 μg NDP-MSH co-injected), read-out: Uptake Ratio Tumor/Liver): 0.68 | tissue to tissue ratio at 2 h (tumor/liver, 2 h post-injection, RGD blockade (3.5 μg RGD co-injected), read-out: Uptake Ratio Tumor/Liver): 7.34 | tissue to tissue ratio at 0.5 h (tumor/lung, 0.037 MBq, 0.5 h post-injection, read-out: Uptake Ratio Tumor/Lung): 1.87 | tissue to tissue ratio at 2 h (tumor/lung, 0.037 MBq, 2 h post-injection, read-out: Uptake Ratio Tumor/Lung): 10.4 | tissue to tissue ratio at 4 h (tumor/lung, 0.037 MBq, 4 h post-injection, read-out: Uptake Ratio Tumor/Lung): 15.9 | tissue to tissue ratio at 24 h (tumor/lung, 0.037 MBq, 24 h post-injection, read-out: Uptake Ratio Tumor/Lung): 8.96 | tissue to tissue ratio at 2 h (tumor/lung, 2 h post-injection, NDP blockade (10 μg NDP-MSH co-injected), read-out: Uptake Ratio Tumor/Lung): 1.38 | tissue to tissue ratio at 2 h (tumor/lung, 2 h post-injection, RGD blockade (3.5 μg RGD co-injected), read-out: Uptake Ratio Tumor/Lung): 13.9 | tissue to tissue ratio at 0.5 h (tumor/muscle, 0.037 MBq, 0.5 h post-injection, read-out: Uptake Ratio Tumor/Muscle): 7.87 | tissue to tissue ratio at 2 h (tumor/muscle, 0.037 MBq, 2 h post-injection, read-out: Uptake Ratio Tumor/Muscle): 102 | tissue to tissue ratio at 4 h (tumor/muscle, 0.037 MBq, 4 h post-injection, read-out: Uptake Ratio Tumor/Muscle): 50.2 | tissue to tissue ratio at 24 h (tumor/muscle, 0.037 MBq, 24 h post-injection, read-out: Uptake Ratio Tumor/Muscle): 27.2 | tissue to tissue ratio at 2 h (tumor/muscle, 2 h post-injection, NDP blockade (10 μg NDP-MSH co-injected), read-out: Uptake Ratio Tumor/Muscle): 3.92 | tissue to tissue ratio at 2 h (tumor/muscle, 2 h post-injection, RGD blockade (3.5 μg RGD co-injected), read-out: Uptake Ratio Tumor/Muscle): 60.3 | dose excreted at 0.5 h (urine, 0.037 MBq, 0.5 h post-injection, read-out: Urine, Percent injected dose): 43.1 ± 5.62% | dose excreted at 2 h (urine, 0.037 MBq, 2 h post-injection, read-out: Urine, Percent injected dose (cleared through the urinary system)): 67.8 ± 6.28% | dose excreted at 4 h (urine, 0.037 MBq, 4 h post-injection, read-out: Urine, Percent injected dose): 75.1 ± 3.61% | dose excreted at 24 h (urine, 0.037 MBq, 24 h post-injection, read-out: Urine, Percent injected dose): 88.3 ± 1.64% | dose excreted at 2 h (urine, 2 h post-injection, NDP blockade (10 μg NDP-MSH co-injected), read-out: Urine, Percent injected dose): 76.8 ± 3.01% | dose excreted at 2 h (urine, 2 h post-injection, RGD blockade (3.5 μg RGD co-injected), read-out: Urine, Percent injected dose): 71.8 ± 5.07%
Structure (SMILES): CC(C)[C@H](NC(=O)[C@@H]1CCCN1C(=O)[C@H](CCCNC(=N)N)NC(=O)[C@H](CS)NC(=O)[C@H](Cc1c[nH]c2ccccc12)NC(=O)[C@H](CCCNC(=N)N)NC(=O)[C@@H](Cc1ccccc1)NC(=O)[C@H](Cc1c[nH]cn1)NC(=O)[C@H](CCC(=O)O)NC(=O)[C@H](CS)NC(=O)[C@H](CS)NC(=O)[C@H](CCCNC(=N)N)NC(=O)[C@@H]1CC(=O)N[C@@H](CCCNC(=N)N)C(=O)NCC(=O)N[C@@H](CC(=O)O)C(=O)N[C@H](Cc2ccc(O)cc2)C(=O)N1)C(N)=O [^99mTc-RGD-Arg-(Arg^11)CCMSH, metal not drawn] (RGD[dY]DRCCEH[dF]RWCRPV-NH2; lactam N-5)
